Target: T1, rPAPD5 (Homo sapiens, UniProt Q8NDF8)
T1 construct: made in house
Assay: differential scanning fluorimetry (DSF) binding and stabilization of rPAPD5
Conditions: shift vs DMSO control; for ΔTm at 100 µM: 100 μM test compound, read-out: ΔTm at 100 μM
Description: Binding and stabilization of rPAPD5 by test compounds was determined using differential scanning fluorimetry (DSF). DSF assays were performed to determine protein melting temperature using an indicator dye SYPRO orange (Thermo Fisher Scientific, S6651) diluted 1:5000 in […] of buffer containing […], […] (Jena Biosciences), 25 mM Tris-HCl, 5 mM MgCl2, 50 mM KCl. […] DMSO was used as a negative control. Each curve was an average of three measurements and Thermal Shift software (Thermo Fisher Scientific, 4466038) was used for analysis. […] The change in melting temperature (ΔTm) is in reference to the DMSO control. Referring to Table 2, “+” refers to ΔTm values below 1° C., “++” refers to ΔTm values from 1 to 5° C., and “+++” refers to ΔTm values above 5° C.

T1 sequence (Q8NDF8 68-698 isoform Q8NDF8-5 limits assumed): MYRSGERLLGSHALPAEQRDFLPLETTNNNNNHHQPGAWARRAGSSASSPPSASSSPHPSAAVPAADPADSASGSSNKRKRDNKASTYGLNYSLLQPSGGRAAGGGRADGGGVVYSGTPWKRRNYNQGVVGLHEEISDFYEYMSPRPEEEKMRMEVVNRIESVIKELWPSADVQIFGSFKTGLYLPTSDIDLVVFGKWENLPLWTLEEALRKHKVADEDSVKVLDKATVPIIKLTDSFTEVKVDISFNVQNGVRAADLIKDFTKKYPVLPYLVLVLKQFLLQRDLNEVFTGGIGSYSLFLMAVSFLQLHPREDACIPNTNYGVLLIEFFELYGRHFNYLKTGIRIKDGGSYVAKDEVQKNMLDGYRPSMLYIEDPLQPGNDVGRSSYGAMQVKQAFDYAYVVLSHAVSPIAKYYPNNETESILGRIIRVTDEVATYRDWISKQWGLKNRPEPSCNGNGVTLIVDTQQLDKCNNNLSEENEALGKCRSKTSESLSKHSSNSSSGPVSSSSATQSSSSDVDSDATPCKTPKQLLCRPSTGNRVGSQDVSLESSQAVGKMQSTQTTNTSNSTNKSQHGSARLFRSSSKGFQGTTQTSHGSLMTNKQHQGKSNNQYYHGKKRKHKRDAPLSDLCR

SMILES | ΔTm at 100 µM [°C] | ΔTm at 10 µM (10 μM test compound, read-out: ΔTm (Table 2, starred: the compound was tested at 10 μM)) [°C]
O=C(O)c1ccccc1Nc1c(S(=O)(=O)N2CCN(C(=O)OCc3ccccc3)CC2)cnc2ccc(Cl)cc12 [Compound 123A-CBZ] |  | > 5
O=C(O)c1ccccc1Nc1c(-c2cnco2)cnc2ccc(Cl)cc12 [Compound 134A] | > 5 | 
CN(C)c1ncc(-c2ccc3ncc(S(=O)(=O)N4CCOCC4)c(Nc4ccccc4C(=O)O)c3c2)cn1 [Compound 142A] | 1 to 5 | 
O=C(O)c1ccccc1Nc1c(S(=O)(=O)N2CCOCC2)cnc2ccc(-c3cn(S(=O)(=O)c4ccccc4)c4ncccc34)cc12 [Compound 144A] | > 5 | 
O=C(O)c1ccccc1Nc1c(S(=O)(=O)N2CCOCC2)cnc2ccc(-c3cc4cc(Cl)ccc4s3)cc12 [Compound 146A-C1] | < 0 | 
O=C(O)c1ccccc1Nc1c(S(=O)(=O)N2CCOCC2)cnc2ccc(-c3cnn(C4CCOC4)c3)cc12 (stereo not shown) [Compound 148A-R] | 1 to 5 | 
O=C(O)c1ccccc1Nc1c(S(=O)(=O)N2CCOCC2)cnc2ccc(-c3cnn4cccnc34)cc12 [Compound 149A] | 1 to 5 | 
C/N=c1/ccc(-c2ccc3ncc(S(=O)(=O)N4CCOCC4)c(Nc4ccccc4C(=O)O)c3c2)c[nH]1 [Compound 151A] | 1 to 5 | 
CN(C)c1cncc(-c2ccc3ncc(S(=O)(=O)N4CCOCC4)c(Nc4ccccc4C(=O)O)c3c2)c1 [Compound 152A, 2-[[6-[5-(dimethylamino)-3-pyridyl]-3-morpholinosulfonyl-4-quinolyl]amino]benzoic acid] | 1 to 5 | 
O=C(O)c1ccccc1Nc1c(S(=O)(=O)N2CCOCC2)cnc2ccc(-c3cncc(C4CC4)c3)cc12 [Compound 153A, 2-[[6-(5-cyclopropyl-3-pyridyl)-3-morpholinosulfonyl-4-quinolyl]amino]benzoic acid] | 1 to 5 | 
O=C(O)c1ccccc1Nc1c(S(=O)(=O)N2CCOCC2)cnc2ccc(-c3cnc4[nH]ncc4c3)cc12 [Compound 155A, 2-[[3-morpholinosulfonyl-6-(1H-pyrazolo[3,4-b]pyridin-5-yl)-4-quinolyl]amino]benzoic acid] | 1 to 5 | 
Cc1c[nH]c2ncc(-c3ccc4ncc(S(=O)(=O)N5CCOCC5)c(Nc5ccccc5C(=O)O)c4c3)cc12 [Compound 156A, 2-[[6-(3-methyl-TH-pyrrolo[2,3-b]pyridin-5-yl)-3-morpholinosulfonyl-4-quinolyl]amino]benzoic acid] | > 5 | 
O=C(O)c1ccccc1Nc1c(S(=O)(=O)N2CCOCC2)cnc2ccc(-c3ccc(N4CCCC4)nc3)cc12 [Compound 157A, 2-[[3-morpholinosulfonyl-6-(6-pyrrolidin-1-yl-3-pyridyl)-4-quinolyl]amino]benzoic acid] | < 1 | 
O=C(O)c1ccccc1Nc1c(S(=O)(=O)N2CCOCC2)cnc2ccc(-c3ccnc4[nH]ccc34)cc12 [Compound 159A, 2-[[3-morpholinosulfonyl-6-(1H-pyrrolo[2,3-b]pyridin-4-yl)-4-quinolyl]amino]benzoic acid] | > 5 | 
O=C(O)c1ccccc1Nc1c(S(=O)(=O)N2CCOCC2)cnc2ccc(-c3cncc4[nH]ccc34)cc12 [Compound 160A, 2-[[3-morpholinosulfonyl-6-(1H-pyrrolo[2,3-c]pyridin-4-yl)-4-quinolyl]amino]benzoic acid] | > 5 | 
O=C(O)c1ccccc1Nc1c(S(=O)(=O)N2CCOCC2)cnc2ccc(-c3ccc(Oc4ccccc4)nc3)cc12 [Compound 162A, 2-[[3-morpholinosulfonyl-6-(6-phenoxy-3-pyridyl)-4-quinolyl]amino]benzoic acid] | 1 to 5 | 

Second part, the compound after the results:

ΔTm at 100 µM [°C] | ΔTm at 10 µM (10 μM test compound, read-out: ΔTm (Table 2, starred: the compound was tested at 10 μM)) [°C] | SMILES
1 to 5 |  | O=C(O)c1c(Nc2c(S(=O)(=O)N3CCOCC3)cnc3ccc(Cl)cc23)cccc1N1CCC1 [Compound 87A-Cl]
1 to 5 |  | O=C(O)c1c(Nc2c(S(=O)(=O)N3CCOCC3)cnc3ccc(Cl)cc23)cccc1-c1ccn[nH]1 [Compound 91A-Cl]
> 5 |  | O=C(O)c1ccccc1Nc1c(S(=O)(=O)N2CCNCC2)cnc2ccc(Cl)cc12 [Compound 123A]
1 to 5 |  | COC(=O)c1ccccc1Nc1c(S(=O)(=O)N2CCOCC2)cnc2ccc(Cl)cc12 [Compound 124A]
1 to 5 |  | O=C(O)c1c(F)cccc1Nc1c(S(=O)(=O)N2CCOCC2)cnc2ccc(Cl)cc12 [Compound 125A]
> 5 |  | O=C(O)c1c(Nc2c(S(=O)(=O)N3CCOCC3)cnc3ccc(Cl)cc23)cccc1C(O)(O)C(F)(F)F [Compound 127A-1]
< 1 |  | O=C(O)c1c(Br)cccc1Nc1c(S(=O)(=O)N2CCOCC2)cnc2ccc(Cl)cc12 [Compound 128A-BR]
> 5 |  | O=C(O)c1ccccc1Nc1c(S(=O)(=O)N2CCOCC2)cnc2ccc(OC(F)(F)F)cc12 [Compound 131A]
> 5 |  | O=C(O)c1ccccc1Nc1c(S(=O)(=O)N2CCC(F)(F)CC2)cnc2ccc(OC(F)(F)F)cc12 [Compound 132A]
> 5 |  | O=C(O)c1c(O)cccc1Nc1c(S(=O)(=O)N2CCC(F)(F)CC2)cnc2ccc(OC(F)(F)F)cc12 [Compound 133A]
> 5 |  | O=C(O)c1ccccc1Nc1c(S(=O)(=O)N2CC(CO)(CCl)C2)cnc2ccc(Cl)cc12 [Compound 135A-BP]
> 5 |  | O=C(O)c1ccccc1Nc1c(S(=O)(=O)N2CC3(COC3)C2)cnc2ccc(Cl)cc12 [Compound 135A]
1 to 5 |  | Cc1ccc(-c2ccc3ncc(S(=O)(=O)N4CCOCC4)c(Nc4ccccc4C(=O)O)c3c2)s1 [Compound 136A]
1 to 5 |  | O=C(O)c1ccccc1Nc1c(S(=O)(=O)N2CCOCC2)cnc2ccc(-c3cc[nH]n3)cc12 [Compound 137A]
> 5 |  | CC(=O)c1ccc(-c2ccc3ncc(S(=O)(=O)N4CCOCC4)c(Nc4ccccc4C(=O)O)c3c2)s1 [Compound 138A]
1 to 5 |  | N#Cc1csc(-c2ccc3ncc(S(=O)(=O)N4CCOCC4)c(Nc4ccccc4C(=O)O)c3c2)c1 [Compound 139A]
1 to 5 |  | O=C(O)c1ccccc1Nc1c(S(=O)(=O)N2CCOCC2)cnc2ccc(-c3sccc3Cl)cc12 [Compound 140A]
< 1 |  | CC(C)n1nc(C(F)(F)F)cc1-c1ccc2ncc(S(=O)(=O)N3CCOCC3)c(Nc3ccccc3C(=O)O)c2c1 [Compound 141A]
1 to 5 |  | N=c1cc(C(F)(F)F)c(-c2ccc3ncc(S(=O)(=O)N4CCOCC4)c(Nc4ccccc4C(=O)O)c3c2)c[nH]1 [Compound 143A]
> 5 |  | COCCn1cc(-c2ccc3ncc(S(=O)(=O)N4CCOCC4)c(Nc4ccccc4C(=O)O)c3c2)cn1 [Compound 145A]
> 5 |  | O=C(O)c1ccccc1Nc1c(S(=O)(=O)N2CCOCC2)cnc2ccc(-c3c[nH]c4ncc(C(F)(F)F)cc34)cc12 [Compound 147A]
> 5 |  | Cn1cc(-c2ccc3ncc(S(=O)(=O)N4CCOCC4)c(Nc4ccccc4C(=O)O)c3c2)ccc1=O [Compound 150A]
> 5 |  | O=C(O)c1ccccc1Nc1c(S(=O)(=O)N2CCOCC2)cnc2ccc(-c3cncnc3)cc12 [Compound 154A, 2-[(3-morpholinosulfonyl-6-pyrimidin-5-yl-4-quinolyl)amino]benzoic acid]
< 1 |  | Cc1cc(OC(C)C)ncc1-c1ccc2ncc(S(=O)(=O)N3CCOCC3)c(Nc3ccccc3C(=O)O)c2c1 [Compound 161A, 2-[[6-(6-isopropoxy-4-methyl-3-pyridyl)-3-morpholinosulfonyl-4-quinolyl]amino] benzoic acid]
